For assay [1], the system named is myolysis induced by bupivacaine hydrochloride in gastrocnemius. The assay is described as follows: Myolysis model induced by bupivacaine hydrochloride, Evans' Blue fluorescence microscopy of gastrocnemius. Format: in vivo, C57BL/6 mice. The conditions noted are these: 10 mg/kg orally; 24 h after bupivacaine hydrochloride 0.5 w/v %, 0.1 ml; FIG. 1. How it is done: Effect of an H-PGDS inhibitor to myolysis was tested using a myolysis model induced by bupivacaine hydrochloride which is an experimental model for muscular dystrophy (Nonaka I, et al., Acta Neuropathol., 60:167–174, 1983). Bupivacaine hydrochloride (0.5 w/v %, 0.1 ml) was injected into gastrocnemius of C57BL/6 mice (K. K. Oriental Bio Service) (eight weeks old; male) to induce myolysis and, after 24 hours, Evans' Blue dye solution (1.0 w/v %) was intravenously injected from tail vein. After 30 minutes, they were killed by excessive anesthetization and perfused with physiological saline solution, gastrocnemius was excised and quickly frozen. The cryosection was prepared and then accumulated Evans' Blue was observed under a fluorescent microscope. Necrotic legion was enhanced by means of fluorescence.

Assay [2] shares this test system. The assay is described as follows: Nonoperative observation of necrotic lesion using X-ray CT with iopamidol. In kind it is in vivo, mice. The conditions noted are these: one day after bupivacaine hydrochloride; 15 min after iopamidol i.v.; FIG. 3. How it is done:
Degenerated region was observed by a nonoperative manner using X-ray CT for experimental animals. N,N′-Bis[2-hydroxy-1-(hydroxymethyl)ethyl]-5-[(2S)-2-hydroxypropanoylamino]-2,4,6-triiodoisophthalamide (iopamidol), an X-ray contrast agent for urinary blood vessels, was intravenously injected from tail vein of mice after one day from the treatment with bupivacaine hydrochloride and a laminogram by an X-ray CT after 15 minutes is shown. A region with specific CT values which is noted in the laminogram of gastrocnemius decreased by administration of HQL-79. In the region where retention of the contrast agent is recognized, bleeding and edema as a result of muscular destruction are noted (refer to FIG. 3).

The subject of a further assay is myolysis in mdx mice. In words: Therapeutic effect in mdx mice (Duchenne's muscular dystrophy model), Evans' Blue retention. The note with it: continuously administered for two weeks; compared with vehicle group; FIG. 5. In kind it is in vivo. How it is done:
HQL-79 was continuously administered for two weeks to mdx mice which is a model animal for Duchenne's muscular dystrophy (Bogdanovich S, et al., Nature, Nov. 28, 2002, 420(6914):418–21) […] and the effect of the HPGDS inhibitor to myolysis was tested. After two weeks from the initiation of the administration, an Evans' Blue dye solution (1.0 w/v %) was intravenously injected from tail vein. After one hour therefrom, the mice were killed by excessive anaesthetization and perfused with physiological saline solution, the gastrocnemius was excised and quickly frozen. The retention of Evans' Blue in the muscle was observed under a fluorescent microscope. Necrotic lesion was enhanced by means of fluorescence. In the mice to which HQL-79 was administered, retention of the dye (grayish white region) which is an index for myolysis decreased as compared with the group to which a vehicle was administered (refer to FIG. 5).

Assay [3] deals with myolysis induced by bupivacaine hydrochloride in gastrocnemius. The assay is described as follows: Quantification of myolysis region by Evans' Blue extraction and absorbance (630 nm). Format: in vivo, C57BL/6 mice.
Method: Quantification of the degenerated region by necrosis shown in Example 1 was carried out. Evans' Blue was extracted from the freeze-dried gastrocnemius by formamide. After the extraction, absorbance of Evans' Blue (630 nm) was measured calorimetrically.

Experimental findings from patent US7238718B2, “Method for treating myolytic disease and method for screening antimyolytic agent” (Osaka Bioscience Institute, priority 2003, dated 2007) are described below.

Take `c1ccc(C(OC2CCN(CCCc3nnn[nH]3)CC2)c2ccccc2)cc1` [HQL-79, 4-benzhydryloxy-1-{3-(1H-tetrazol-5-yl)-propyl}piperidine]: the “degenerated region by necrosis (Evans' Blue fluorescence)” value in assay [1] is “degenerated region by necrosis became small”. Moreover, the “region with specific CT values in laminogram of gastrocnemius” value in assay [2] was “decreased”. Moreover, the “retention of Evans' Blue dye in muscle (index for myolysis)” value with myolysis in mdx mice was “decreased”. Also, in assay [3] (HQL-79 group of Example 1, formamide extraction, FIG. 2), the “incorporation of Evans' Blue into gastrocnemius (absorbance 630 nm)” value is “significantly decreased”.
With `O=C(O)CCn1c2c(c3ccccc31)C[C@H](NS(=O)(=O)c1ccc(F)cc1)CC2` [ramatroban, (+)-(3R)-3-(4-fluorobenzenesulfonamide)-1,2,3,4-tetrahydrocarbazole-9-propionic acid], the “amount of Evans' Blue impregnated into the tissue (absorbance 630 nm)” value in assay [3] (30 mg/kg orally, 1 h before and 18 h after bupivacaine hydrochloride 1 w/v %, 0.05 mL, read at 24 h, FIG. 6) is given as “lowered”.
